The test system of one test is ATM-phosphorylated KAP1. The experiment in a line: Intracellular ATM-phosphorylated KAP1 level, ICW assay in MCF7 cells. It counts as cell-based, Human. The following applies: Homo sapiens, light or radiation study; MCF7 cells, 2 h compound, 10 Gy irradiation, further 1 h; read-out: pKAP1 IC50. As to the method:
4 Inhibition on Intracellular ATM-Phosphorylated KAP1 Level by the Compounds of the Present Disclosure: ICW Assay
• Cell: Human breast cancer cell line MCF7 • Materials and reagents:
4.2 Experimental Procedures
• (1) Cell inoculation • MCF7 cells were inoculated on a 384-well plate, 10000 cells/well (25 μL/well), and cultured overnight at 37° C. with 5% CO2. • (2) Activity detection • 1) The compound was formulated into a 100 mM solution with DMSO and then sequentially diluted with a gradient of 1:3 to yield a total of 10 concentration gradients, wherein the maximum concentration was 100 μM. • 2) 25 nL of each of the compound solutions with gradient concentrations prepared in step 1) was added to each well of the cell plate (Corning #356663) by using I-DOT One, resulting in a final concentration of 100 nM (maximum dose). • 3) The cell plate containing compound was incubated at 37° C. with 5% CO2 for 2 h. After 2 h, the cell plate was irradiated with a dose of 10 Gy, and then further incubated for 1 h. • 4) 25 μL of 8% paraformaldehyde was added to each well, followed by incubating at room temperature for 20 min. • 5) The 8% paraformaldehyde was discarded, followed by adding 0.1% TrintonX-100 and incubating at room temperature for 30 min. • 6) Odessey blocking buffer was added at 50 μL/well, followed by incubating at room temperature for 1.5 h. • 7) The Odessey blocking buffer was discarded, and then a primary antibody (Phospho-KAP1, 1:2000 dilution) was added, followed by incubating overnight at 4° C. • 8) The primary antibody was removed, followed by washing with PBS+0.1% Tween 20 for 5 times. • 9) DNA dye DRAQ5 coated with a second antibody (IRDye 800CW Goat anti-Rabbit, 1:4000 dilution) was added, followed by incubating at room temperature for 1 h. • 10) The second antibody was removed, followed by washing with PBS+0.1% Tween 20 for 5 times. • 11) PBS+0.1% Tween 20 was sucked off with Odyssey. • (3) Data analysis • 1) the relative ratio of Channel 800/Channel 700 for each well was detected. • 2) % of KAP1 phosphorylation was calculated according to the following formula:
% of KAP1 phosphorylation=[(Ratiocmpd−(Ratio)Positive)/((Ratio)Vehicle−(Ratio)Positive]*100 • (Ratio)Positive: the mean value of the test values of each positive control well in the test cell plate; • (Ratio)Vehicle: the mean value of the test values of each negative control well in the test cell plate. • 3) the IC50 of each compound was calculated and the dose-effect curve was plotted: % of KAP1 phosphorylation and log of compound's concentration were fit by using Graphpad 8.0 so as to calculate the IC50.
[formula] • X: log of compound's concentration • Y: % of KAP1 phosphorylation

For another test, the target named is ATM (Homo sapiens (Human), UniProt Q13315). The experiment in a line: Caliper mobility shift assay for ATM. Particulars: read-out: IC50 of inhibitory activity on ATM kinase. It counts as biochemical. As to the method:
1.2 Determination of the Inhibitory Activities of Compounds on ATM: Caliper Mobility Shift Assay for ATM
To a 96-well plate, 98 μL of DMSO and 2 μL of the 10 mM stock solution were added and mixed evenly so that the concentration of the solution was 200 μM.
Based on the inhibitory rates of the compound at different concentrations, IC50 was calculated according to the formula: Y=Bottom+(Top−Bottom)/(1+(IC50/X)^HillSlope).

For test [1], the system named is subcutaneous xenograft tumor of human glioblastoma LN-18. The experiment in a line: LN-18 subcutaneous xenograft, combined with radiotherapy. It counts as in vivo, NOG mice. The following applies: compound 10 mg/kg intragastric qd × 5 + IR 1 Gy, day 17. The procedure, abridged:
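Female NOG mice (18–22 g) bearing subcutaneous LN-18 tumours (1.5*10^7 cells, right costal region) were grouped at 100–150 mm^3; radiotherapy followed compound dosing by 1 h. Caliper volumes twice weekly (0.5×long×short^2); TGI % derived from treated vs control mean volume changes from day 0.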

Structures are written as SMILES. Marks after values point to notes of the source that are not given here.

Sequence of ATM (Q13315 whole entry): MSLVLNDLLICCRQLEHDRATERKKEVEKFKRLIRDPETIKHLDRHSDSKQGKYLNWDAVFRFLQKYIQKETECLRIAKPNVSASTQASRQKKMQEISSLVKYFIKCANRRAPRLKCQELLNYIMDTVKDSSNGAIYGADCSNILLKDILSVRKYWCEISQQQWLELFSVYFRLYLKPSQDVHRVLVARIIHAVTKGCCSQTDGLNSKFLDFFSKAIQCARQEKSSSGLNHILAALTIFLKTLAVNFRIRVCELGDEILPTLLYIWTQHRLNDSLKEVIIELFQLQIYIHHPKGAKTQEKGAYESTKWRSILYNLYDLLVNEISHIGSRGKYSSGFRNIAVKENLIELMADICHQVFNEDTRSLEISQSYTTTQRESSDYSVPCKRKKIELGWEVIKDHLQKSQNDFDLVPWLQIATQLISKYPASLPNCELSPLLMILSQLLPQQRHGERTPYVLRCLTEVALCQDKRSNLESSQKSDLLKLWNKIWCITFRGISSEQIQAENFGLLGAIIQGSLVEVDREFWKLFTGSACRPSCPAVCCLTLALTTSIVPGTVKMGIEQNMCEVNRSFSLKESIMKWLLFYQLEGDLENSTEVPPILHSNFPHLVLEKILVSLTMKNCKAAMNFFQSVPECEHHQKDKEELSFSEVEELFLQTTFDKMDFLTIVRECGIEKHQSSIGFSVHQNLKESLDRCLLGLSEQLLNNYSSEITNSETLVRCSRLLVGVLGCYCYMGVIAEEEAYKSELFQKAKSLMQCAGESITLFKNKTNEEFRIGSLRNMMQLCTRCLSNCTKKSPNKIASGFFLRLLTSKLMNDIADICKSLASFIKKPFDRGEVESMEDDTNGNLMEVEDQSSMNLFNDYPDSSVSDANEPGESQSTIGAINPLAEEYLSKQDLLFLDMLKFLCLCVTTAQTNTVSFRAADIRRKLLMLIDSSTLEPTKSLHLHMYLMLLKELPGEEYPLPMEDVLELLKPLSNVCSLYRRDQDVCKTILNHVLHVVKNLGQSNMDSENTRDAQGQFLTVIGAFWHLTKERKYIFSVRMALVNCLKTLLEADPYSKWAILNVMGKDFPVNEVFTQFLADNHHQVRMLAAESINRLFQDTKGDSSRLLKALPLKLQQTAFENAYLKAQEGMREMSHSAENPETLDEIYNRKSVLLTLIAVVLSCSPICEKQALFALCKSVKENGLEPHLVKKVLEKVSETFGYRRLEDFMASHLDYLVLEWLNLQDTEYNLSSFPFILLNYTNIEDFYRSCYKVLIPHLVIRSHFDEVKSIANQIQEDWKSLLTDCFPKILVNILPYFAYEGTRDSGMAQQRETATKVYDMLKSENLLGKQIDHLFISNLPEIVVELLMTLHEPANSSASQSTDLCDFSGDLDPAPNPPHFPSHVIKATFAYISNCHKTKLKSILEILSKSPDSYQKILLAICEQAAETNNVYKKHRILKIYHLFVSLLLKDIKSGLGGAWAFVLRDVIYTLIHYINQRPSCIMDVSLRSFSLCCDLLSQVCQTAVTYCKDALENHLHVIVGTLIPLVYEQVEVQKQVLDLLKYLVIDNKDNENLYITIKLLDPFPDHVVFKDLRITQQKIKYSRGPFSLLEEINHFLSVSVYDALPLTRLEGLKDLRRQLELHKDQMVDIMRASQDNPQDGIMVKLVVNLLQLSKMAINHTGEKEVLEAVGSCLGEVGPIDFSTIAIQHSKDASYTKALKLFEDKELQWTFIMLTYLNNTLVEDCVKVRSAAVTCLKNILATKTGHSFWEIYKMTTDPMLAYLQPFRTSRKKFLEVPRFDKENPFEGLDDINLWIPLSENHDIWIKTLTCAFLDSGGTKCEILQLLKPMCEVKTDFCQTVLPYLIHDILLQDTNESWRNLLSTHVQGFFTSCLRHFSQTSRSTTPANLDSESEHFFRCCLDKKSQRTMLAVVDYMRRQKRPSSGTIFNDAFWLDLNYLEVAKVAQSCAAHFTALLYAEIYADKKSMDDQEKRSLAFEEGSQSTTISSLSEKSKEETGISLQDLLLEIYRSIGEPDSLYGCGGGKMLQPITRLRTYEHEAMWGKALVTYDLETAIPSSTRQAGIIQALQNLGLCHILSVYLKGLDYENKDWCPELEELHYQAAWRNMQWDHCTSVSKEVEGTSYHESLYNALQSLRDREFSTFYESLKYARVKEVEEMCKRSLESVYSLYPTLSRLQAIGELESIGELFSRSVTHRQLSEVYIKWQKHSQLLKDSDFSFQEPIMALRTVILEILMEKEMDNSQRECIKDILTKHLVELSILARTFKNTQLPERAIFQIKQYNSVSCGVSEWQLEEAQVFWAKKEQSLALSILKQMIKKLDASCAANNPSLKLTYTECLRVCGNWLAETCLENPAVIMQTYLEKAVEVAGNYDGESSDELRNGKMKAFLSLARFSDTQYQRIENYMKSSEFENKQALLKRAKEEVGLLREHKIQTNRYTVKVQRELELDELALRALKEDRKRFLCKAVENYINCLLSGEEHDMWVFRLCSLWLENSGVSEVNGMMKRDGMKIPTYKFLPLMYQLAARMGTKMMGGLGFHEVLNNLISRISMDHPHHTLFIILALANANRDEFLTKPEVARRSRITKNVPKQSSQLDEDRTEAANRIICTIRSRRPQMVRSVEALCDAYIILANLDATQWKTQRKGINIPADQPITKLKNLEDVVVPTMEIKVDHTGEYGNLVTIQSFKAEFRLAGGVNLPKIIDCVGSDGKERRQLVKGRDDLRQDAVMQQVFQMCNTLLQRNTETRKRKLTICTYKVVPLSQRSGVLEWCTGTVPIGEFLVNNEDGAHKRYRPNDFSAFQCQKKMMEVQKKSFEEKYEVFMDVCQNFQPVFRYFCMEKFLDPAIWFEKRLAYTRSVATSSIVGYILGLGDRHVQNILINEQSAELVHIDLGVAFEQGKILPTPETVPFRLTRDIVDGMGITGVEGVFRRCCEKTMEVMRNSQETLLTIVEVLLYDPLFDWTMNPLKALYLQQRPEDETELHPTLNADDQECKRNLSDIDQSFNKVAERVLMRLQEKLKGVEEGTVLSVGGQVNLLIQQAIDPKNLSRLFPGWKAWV

The IC50 is the concentration that inhibits the measured activity by half. Regarding `Cn1c(=O)n2c3c4c(c(-c5ccc(OCCCN6CCCCC6)nc5)c(F)cc4ncc31)NCC2(C)C` [Example A-193, 6-fluoro-2,10,10-trimethyl-7-(6-(3-(piperidin-1-yl)propoxy)pyridin-3-yl)-2,8,9,10-tetrahydro-1H-2,4,8,10a-tetraazanaphtho[2,1,8-cde]azulen-1(2H)-one], the IC50 in the test with ATM-phosphorylated KAP1 stood at 1.75 nM. In addition, at ATM, the IC50 is 0.65 nM. For the same molecule, in test [1], the “D 17 TGI” value came to 81.1% and the “D 17 TV (MEAN ± SD)” value is reported as 310 ± 61***^# mm^3.

`CC(C)n1c(=O)n(C)c2cnc3cc(F)c(-c4ccc(OCCCN5CCCCC5)nc4)cc3c21` [AZD1390, reference compound]: the IC50 with ATM-phosphorylated KAP1 was 0.45 nM. The IC50 at ATM came to 0.2 nM. Moreover, in test [1], the “D 17 TGI” value is given as 82.8% and the “D 17 TV (MEAN ± SD)” value is given as 294 ± 52***^# mm^3.

Source of the values: patent US20240294545A1 (CSPC Zhongqi Pharmaceutical Technology (Shijiazhuang) Co., …, priority 2020, published 2024).
